Laboratory results: PubChem BioAssay AID1549 (Sanford-Burnham Center for Chemical Genomics, 2009)
Active and inactive are the calls of the source. How the calls were made is not given here.

Biological target: Influenza A virus M2 proton channel (A/TW/4845/1999 H1N1)
Assay: NMR binding screen, influenza A virus M2 proton channel, Kd (AID 1549)
Conditions: M2 protein

Structure (SMILES) | Kd
Oc1cc(O)c2c(c1)O[C@H](c1ccc(O)c(O)c1)[C@@H](O)C2 | > 4 mM (inactive)
CSc1nc(=O)[nH]c2c1CCC2 | > 4 mM (inactive)
CN1CCC(NC(=O)Cc2c(F)cccc2Cl)CC1 | > 4 mM (inactive)
Cc1nc(-c2ccc(CO)s2)cs1 | > 4 mM (inactive)
c1ccc(-c2csc(Nc3cccnc3)n2)nc1 | > 4 mM (inactive)
O=c1cc(O)nc(SCc2ccccc2)[nH]1 | > 4 mM (inactive)
NC(=O)C1(c2ccccc2)CCOCC1 | > 4 mM (inactive)
O=C(Nc1nnc(-c2ccco2)o1)C1=COCCO1 | > 4 mM (inactive)
CC(C)=CCCC1(C)C=Cc2c(O)c3c(c(CC=C(C)C)c2O1)OC12C(=CC4CC1C(C)(C)OC2(C/C=C(/C)C(=O)O)C4=O)C3=O (configuration not stated) | > 4 mM (inactive)
CC(=O)Nc1ccc(S(=O)(=O)NCC2CCCO2)cc1 (configuration not stated) | > 4 mM (inactive)
O=c1cc(-c2ccccc2)oc2cc(O)cc(O)c12 | > 4 mM (inactive)
COc1cccc2c1CCC1=CC(=O)CC[C@@]12C | > 4 mM (inactive)
Cc1c(C(=O)Nc2ccccn2)oc2ccccc12 | > 4 mM (inactive)
Cc1cc(C)c2nncn2n1 | > 4 mM (inactive)
CCOC(=O)CSc1nnc(C)c(=O)[nH]1 | > 4 mM (inactive)
O=S(=O)(c1cccc2cccnc12)N1CCOCC1 | > 4 mM (inactive)
c1cncc(Cn2cccc2)c1 | > 4 mM (inactive)
COc1cc(OC)c2ccc(=O)oc2c1 | > 4 mM (inactive)
Cc1ccc(N2C(=O)C3C4C=CC(O4)C3C2=O)cc1 (configuration not stated) | > 4 mM (inactive)
CN(C)S(=O)(=O)NCc1ccc2c(c1)OCO2 | > 4 mM (inactive)
Cc1cc(C)n(CC(=O)O)n1 | > 4 mM (inactive)
COc1cc(C2NC(=S)NC(C)=C2C(C)=O)ccc1O (configuration not stated) | > 4 mM (inactive)
COCCn1cnc2cc(C)c(C)cc21 | > 4 mM (inactive)
Cn1nnc2cc(C(=O)N3CCSCC3)ccc21 | > 4 mM (inactive)

Structure (SMILES) | Kd
O=C(NCc1ccco1)c1ccc(=O)[nH]c1 | > 4 mM (inactive)
O=[N+]([O-])c1ccc(/C=N/c2ncn[nH]2)cc1 | > 4 mM (inactive)
Cc1oc(-c2ccccc2)cc1CO | > 4 mM (inactive)
COc1cc(-c2csc(C)n2)ccc1O | > 4 mM (inactive)
O=C(Cc1ccc(F)cc1)Nc1ncccn1 | > 4 mM (inactive)
N#CCCn1c(=O)oc2ccccc21 | > 4 mM (inactive)
Cc1cc(C)nc(N(C#N)Cc2ccccc2)n1 | > 4 mM (inactive)
O=C(Nc1nnc(-c2ccco2)o1)c1ccc([N+](=O)[O-])o1 | > 4 mM (inactive)
Nc1nc(SCc2ccc3c(c2)OCCO3)n[nH]1 | > 4 mM (inactive)
COc1cc2c3cc1Oc1c(OC)c(OC)cc4c1[C@@H](Cc1cccc(c1)Oc1ccc(c(O)c1)C[C@@H]3N(C)CC2)N(C)CC4 | > 4 mM (inactive)
Cc1nc(-c2ccccc2)sc1CN | > 4 mM (inactive)
CCN1CCc2c(sc(N)c2C(N)=O)C1 | > 4 mM (inactive)
CNc1ccccc1C(=O)O | > 4 mM (inactive)
Cc1ccc(SCCN2C(=O)NC(C)(C)C2=O)cc1 | > 4 mM (inactive)
CCOC(=O)c1[nH]cnc1C(=O)OC(C)C | > 4 mM (inactive)
O=C1NC(=O)C(C2SC(=O)NC2=O)S1 (configuration not stated) | > 4 mM (inactive)
O=C(O)c1cccc2c1OCC2 | > 4 mM (inactive)
C=CCc1ccc(OC(=O)c2ccccc2)c(OC)c1 | > 4 mM (inactive)
CC(C)(C)c1cc(N)n[nH]1 | > 4 mM (inactive)
Cc1[nH]c2ccccc2c1C(=O)CSc1ncn[nH]1 | > 4 mM (inactive)
Cc1cc(F)c(F)c(C(=O)NC2CC2)c1Cl | > 4 mM (inactive)
COc1ccc(/C=C/C(=O)O)cc1OC | > 4 mM (inactive)
CC(NC(=O)c1ccco1)C1CCCO1 (configuration not stated) | > 4 mM (inactive)
CC(=O)Oc1c2c(c3c(c1CC=C(C)C)O[C@]14C(=C[C@@H]5CC1C(C)(C)OC4(C/C=C(\C)C(=O)O)C5=O)C3=O)OC(C)(CCC=C(C)C)C=C2 (some centres not stated) | > 4 mM (inactive)

Structure (SMILES) | Kd
c1ccc(SCc2nc(-c3ccccn3)no2)cc1 | > 4 mM (inactive)
O=C(Nc1ccon1)c1csc2ccccc12 | > 4 mM (inactive)
NC1CSCC1O (configuration not stated) | > 4 mM (inactive)
COc1cc2c(cc1OC)C(C)NCC2 (configuration not stated) | > 4 mM (inactive)
Cn1c(=O)[nH]c(=O)c2c1ncn2CCN1CCCCC1 | > 4 mM (inactive)
O=[n+]1c2c(n([O-])c3ccccc31)CCCC2 | > 4 mM (inactive)
NCc1cccc2nsnc12 | > 4 mM (inactive)
Cc1nc(-c2ccc(NS(C)(=O)=O)cc2)cs1 | > 4 mM (inactive)
COc1cc(C)c(S(=O)(=O)N2CCN(C)CC2)cc1C | > 4 mM (inactive)
Cn1c(=O)n(CC(=O)N2CCOCC2)c2ccccc21 | > 4 mM (inactive)
Cc1n[nH]c(=O)nc1N1CCN(c2ccccc2)CC1 | > 4 mM (inactive)
O=C1C=CC2=C3c4cc(O)c(O)cc4C[C@@]3(O)COC2=C1 | > 4 mM (inactive)
CC1(C)C(=O)[C@@H]2O[C@@H]2[C@@]2(C)C1C[C@@H](O)[C@]1(C)C2CC[C@@]2(C)[C@H](c3ccoc3)OC(=O)C3OC321 (some centres not stated) | > 4 mM (inactive)
Nc1cccc(C(=O)c2ccccc2)c1 | > 4 mM (inactive)
O=C(Cc1c(F)cccc1Cl)Nc1cccnc1 | > 4 mM (inactive)
CC(=O)Oc1cc2c(c(C)c1OC(C)=O)CC=C1[C@@]2(C)CC[C@@]2(C)C3C[C@](C)(C(=O)O)CC[C@]3(C)CC[C@]12C (some centres not stated) | > 4 mM (inactive)
Cc1cc(C)cc(C(=O)n2cnnc2N)c1 | > 4 mM (inactive)
CC(=O)NCCc1cc2ccc(C)c(C)c2[nH]c1=O | > 4 mM (inactive)
COc1ncnc(N)c1[N+](=O)[O-] | > 4 mM (inactive)
OCCN1CCN(C(=S)c2ccc(Cl)cc2)CC1 | > 4 mM (inactive)
Cc1nc2ccccc2c(=O)n1NC(=O)C1CCCCC1 | > 4 mM (inactive)
CCn1nccc1C(=O)Nc1ccc(Cl)cc1Cl | > 4 mM (inactive)
CC(C)=NNC(=O)c1ccccc1 | > 4 mM (inactive)
O=C(NCc1ccccn1)c1ccc(Cl)cc1Cl | > 4 mM (inactive)

Structure (SMILES) | Kd
O=C1NC(=O)C(=Cc2cccs2)C(=O)N1 | > 4 mM (inactive)
Cc1noc(C)c1C(=O)Nc1cccnc1 | > 4 mM (inactive)
COc1cc(CNC(=O)CCCC/C=C/C(C)C)ccc1O | > 4 mM (inactive)
CN1CCCn2c1nc1c2c(=O)[nH]c(=O)n1C | > 4 mM (inactive)
CCCCCC1C(=O)CCC1CC(=O)O (configuration not stated) | > 4 mM (inactive)
O=C(Nc1ccc2c(c1)CCC2)c1cnccn1 | > 4 mM (inactive)
CCc1ccccc1OCc1nnc(N)s1 | > 4 mM (inactive)
NC(=O)CSc1nnc2ccc(-c3ccco3)nn12 | > 4 mM (inactive)
Nc1ccc2c(c1)COc1ccccc1O2 | > 4 mM (inactive)
Cc1nnc(SCC(=O)N2CCc3ccccc32)s1 | > 4 mM (inactive)
COC(=O)c1ccc(N2CCCC2)nc1 | > 4 mM (inactive)
OCc1sccc1-n1cccc1 | > 4 mM (inactive)
NC(=O)c1ccc(Cl)c(N2C(=O)CCC2=O)c1 | > 4 mM (inactive)
CNC(=S)NCCN1CCOCC1 | > 4 mM (inactive)
COc1ccc2c(c1)OC1(O)COc3cc(OC)c(OC)cc3C1=C2 (configuration not stated) | > 4 mM (inactive)
COc1ccc(NS(=O)(=O)c2ccc(N)cc2)nn1 | > 4 mM (inactive)
C=C(C)[C@@H]1CC[C@]2(CO)CC[C@]3(C)[C@H](CCC4[C@@]5(C)CC[C@H](O)C(C)(C)C5CC[C@]43C)C12 (some centres not stated) | > 4 mM (inactive)
CCn1nnc2c(NCc3ccccn3)ncnc21 | > 4 mM (inactive)
Cc1ccc(C2NS(=O)(=O)N=C2N)cc1 (configuration not stated) | > 4 mM (inactive)
CC(C)NC(=O)Cc1c(O)c2ccccc2[nH]c1=O | > 4 mM (inactive)
C=C1C([C@]2(C)C(CC(=O)OC)[C@@](C)(COC(C)=O)OC(=O)C[C@@H]2OC(C)=O)[C@@H](OC=O)[C@H](OC(=O)C(OC(C)=O)C(C)CC)[C@@]2(C)[C@H](c3ccoc3)CC(=O)C12O (some centres not stated) | > 4 mM (inactive)
CC1=CCCC2C1(C)CCC(C)C2(C)CC/C(C)=C/C[n+]1cn(C)c2c(N)ncnc21 (configuration not stated) | > 4 mM (inactive)
O=c1c2c(nc3nc(Cc4ccccc4)[nH]n13)CCC2 | > 4 mM (inactive)
O=C(O)C1CSC(c2ccccc2)N1 (configuration not stated) | > 4 mM (inactive)

Structure (SMILES) | Kd
NC(=O)CCn1c(=O)oc2ccccc21 | > 4 mM (inactive)
Cc1nnc(NCc2ccc3c(c2)OCO3)[nH]c1=O | > 4 mM (inactive)
CC(C)CCCC(C)[C@H]1CCC2C3CC=C4C[C@@H](O)CC[C@]4(C)C3CC[C@@]21C (some centres not stated) | > 4 mM (inactive)
O=C1CSC(c2ccccc2)N1 (configuration not stated) | > 4 mM (inactive)
CNC(=S)Nc1ccc(OC)cc1C | > 4 mM (inactive)
COc1ccc(-c2nc(N)n(C(C)=O)n2)cc1 | > 4 mM (inactive)
COc1cc(/C=C/C(=O)O)ccc1O | > 4 mM (inactive)
Cn1[nH]c2nc3[nH]n(C)c(=O)c3c(-c3ccccc3)c2c1=O | > 4 mM (inactive)
O=c1[nH]nc(Cc2ccncc2)c2ccccc12 | > 4 mM (inactive)
NC(CC(=O)O)C(=O)Nc1ccc(Cl)cc1 (configuration not stated) | > 4 mM (inactive)
Nc1nncn1C(=O)c1c(Cl)cccc1Cl | > 4 mM (inactive)
CN1CCN(Cc2cccnc2)CC1 | > 4 mM (inactive)
[O-][n+]1onc2c1CCc1c-2nn(-c2ccccc2)[n+]1[O-] | > 4 mM (inactive)
CNC(=O)N1CCN(C(=O)NC)CC1 | > 4 mM (inactive)
O=C(c1ccccc1-c1ccccc1)N1CCOCC1 | > 4 mM (inactive)
Nc1ccc2nccnc2c1 | > 4 mM (inactive)
CC[C@H]1CN2CCC1C[C@@H]2[C@@H](O)c1ccnc2ccc(OC)cc12 (some centres not stated) | > 4 mM (inactive)
CC[C@H]1CN2CCc3cc(OC)c(OC)cc3C2C[C@@H]1CC1NCCc2cc(OC)c(OC)cc21 (some centres not stated) | > 4 mM (inactive)
O=C(O)c1cc(=O)c2cccc(O)c2[nH]1 | > 4 mM (inactive)
CC(=O)Nc1cc2c(cc1C(=O)C(C)C)OCCO2 | > 4 mM (inactive)
O=C(NCO)c1ccc([N+](=O)[O-])cc1 | > 4 mM (inactive)
